Measurements taken from patent US8697366B2, “Anti-cancer drug screening method using RORα” (Seoul National University Industry Foundation, priority 2009, dated 2014).
“Also recorded” adds a separate entry of the source.

Legend:
Format in all cases: cell-based
[1] = test system: RORα; test: Phosphorylation of RORα in HCT116 cells (immunoprecipitation / immunoblot with anti-phospho-Ser or anti-phospho-RORαS35 antibody)
Method: (A) Schematic representation of RORα showing the location of the N-terminal domain (NTD), the DNA-binding domain (DBD), the hinge region, the ligand-binding domain (LBD), and the AF-2 domain. […] HEK293 cells were cotransfected with plasmids expressing each His-tagged RORα deletion construct and β-catenin. Whole cell extracts (left panel) and Ni^+-NTA-agarose pulldown materials (right panel) were analyzed by immunoblotting against anti-β-catenin IgG or anti-Xpress IgG. (C) Illustration of the structure of deletion fragments of RORα(SEQ ID NO:17). (D) Interaction of each RORα deletion construct with HisMax-β-catenin was assessed by Ni^+-NTA-agarose pulldown assay. […] The phosphorylated peptide samples were analyzed by LC-MS analysis. […] Immunoprecipitation assay was conducted with anti-Flag antibody, and the phosphorylated RORα was detected by immunoblot analysis with anti-phospho-Ser antibody. […] The reaction samples were subjected to 12% SDSPAGE, and phosphorylated RORα was detected by autoradiography. […] The fluorescence-conjugated secondary antibody was visualized using fluorescence microscopy, and nuclear staining with DAPI was shown.
(A) The specificity of the antibody raised against phosphorylated RORαS35 peptide (SEQ ID NO:18) was assessed by dot blot analysis. (B) Treatment of TPA increased phophorylated RORα on S35 site as assessed by immunoprecipitation with anti-phospho-RORαS35 antibody. […]

[2] = test system: binding of RORα to β-catenin; test: Coimmunoprecipitation of RORα with β-catenin in HCT116 cells
Method: (§1) (A) The specificity of the antibody raised against phosphorylated RORαS35 peptide (SEQ ID NO:18) was assessed by dot blot analysis. (B) Treatment of TPA increased phophorylated RORα on S35 site as assessed by immunoprecipitation with anti-phospho-RORαS35 antibody. […] (D) Treatment of Go6976, a PKCα inhibitor, abolished TPA-dependent phosphorylation of RORα as assessed by immonoblotting with anti-phospho-RORαS35 antibody. (E) HCT116 cells were transfected with Flag-RORα WT, S35D, or S35A, and the cell extracts were immunoprecipitated with anti-Flag antibody followed by immunoblotting against anti-β-catenin antibody. (F) Coimmunoprecipitation assay of β-catenin with either RORαWT or S35A in HCT116 cells after treatment with TPA in the absence or presence of Go6976. (G) ChIP analysis on the cyclin D1 promoter after transfection with Flag-RORαWT, S35A, or S35D in HCT116 cells. (H) ChIP analysis on the cyclin D1 promoter in HCT116 cells after TPA treatment for indicated time. (I) ChIP assay was performed on the cyclin D1 promoter in the absence or presence of siRNA against PKCα with treatment of TPA for 90 min. (J) Real-time quantitative RT-PCR analysis of the cyclin D1 transcript in HCT116 cells in the presence of TPA for indicated time. (K) Knockdown effect of siRNA against RORα or PKCα was assessed in the expression of the cyclin D1 transcript in HCT116 cells.

[3] = test system: cyclin D1 promoter; test: ChIP assay on the cyclin D1 promoter in HCT116 cells
Method: as §1
(B) Cyclin D1 transcript was measured after introducing siRNAs against RORα or PKCα in the presence of Wnt5a in HCT116 cells. (C) Real-time quantitative RTPCR analysis of the cyclin D1 transcript in HCT116 cells after introducing RORα, S35A, or S35D in the presence of Wnt5a. (D) […] on the cyclin D1 promoter with treatment of either TPA or Wnt5a in HCT116 cells. Occupancy of the cyclin D1 promoter by phosphorylated RORα, β-catenin, RNA polymerase II, H3K9me2, H3K4me2, CBP, pCAF, p300, or SMRT was indicated. (E) Transwell cell migration assay for RORα, RORαS35A, or RORαS35D-expressing HCT116 cells with treatment of Wnt5a. Values are represented as mean±s.d. for three independent experiments. (F) The anchorage-independent growth of HCT116 cells expressing RORα, RORαS35A, or RORαS35D in soft agar. Values are expressed as mean±SEM for two experiments in 6 place wells. Colonies were counted in 10 different fields and total colony number/well was calculated. Representative image is shown for each group.
The ChIP, two-step ChIP, and shRNA-coupled ChIP assays were conducted as previously described (Baek et al., 2002; Kim et al., 2005).

[4] = test system: cyclin D1 transcript; test: Real-time quantitative RT-PCR of the cyclin D1 transcript in HCT116 cells
Method: The abundance of mRNA was detected by an ABI prism 7300 system with SYBR Green (molecular probes). Primer pairs were designed to amplify 90-150 bp mRNA specific fragments, and confirmed to be unique products by melting curve analysis. The PCR conditions were 95° C. (5 min) and 40 cycles of 95° C. (30 s), 57° C. (30 s), and 72° C. (30 s).
The quantity of mRNA was calculated using the ΔΔCt method and normalized by using primers to detect β-actin or HPRT. All reactions were performed in triplicates.

## CCCCCCCCCCCCCC(=O)O[C@@H]1[C@@H](C)[C@@]2(O)[C@@H](C=C(CO)C[C@]3(O)C(=O)C(C)=C[C@@H]23)[C@@H]2C(C)(C)[C@]12OC(C)=O [TPA, 12-O-tetradecanoylphorbol-13acetate]
[1]; HCT116 cells, treatment alone
  phosphorylation of RORα: increased phosphorylation
[2]; TPA treatment
  binding of RORα to β-catenin: significantly increased
[3]
  RNA polymerase II recruitment on the cyclin D1 promoter: concomitant decrease; also recorded: decreased
  methylation of histone H3K9 on the cyclin D1 promoter: increased methylation
  recruitment of CBP, p300, and pCAF coactivators to the cyclin D1 promoter: significantly decreased
  recruitment of β-catenin on the cyclin D1 promoter: not altered
[3]; anti-phospho-RORαS35 IgG
  recruitment of phosphorylated RORα on the cyclin D1 promoter: increased the recruitment
[4]
  cyclin D1 transcript: downregulation

## Cn1c2ccccc2c2c3c(c4c5ccccc5n(CCC#N)c4c21)CNC3=O [Go6976]
[1]; in presence of TPA, anti-phospho-RORαS35 immunoblot
  TPA-induced phosphorylation of RORα: abolished
[2]; TPA plus Go6976
  TPA-induced increased binding of RORα to β-catenin: almost completely abolished
